Reference: the CheMixHub ionic liquid set
± gives the uncertainty stated by the source.

Test: xn = mol fraction of the nth substance listed

CC(C)O + CC[n+]1ccn(CCOC)c1.N#C[S-]
100 kPa, x2 = 0
Details	viscosity [mPa·s]
288.15 K	2.83 ± 0.15
293.15 K	2.42 ± 0.13
298.15 K	2.07 ± 0.11
303.15 K	1.79 ± 0.098
308.15 K	1.552 ± 0.085
313.15 K	1.352 ± 0.074
318.15 K	1.183 ± 0.065

CCCCO + CC[n+]1ccn(CCOC)c1.N#C[S-]
100 kPa, x2 = 0
Details	viscosity [mPa·s]
288.15 K	3.36 ± 0.18
293.15 K	2.94 ± 0.16
298.15 K	2.58 ± 0.14
303.15 K	2.27 ± 0.12
308.15 K	2.01 ± 0.11
313.15 K	1.78 ± 0.097
318.15 K	1.585 ± 0.087

CC(C)O + CC[n+]1ccn(CCOC)c1.O=S(=O)([O-])C(F)(F)F
101 kPa, x2 = 0
Details	viscosity [mPa·s]
288.15 K	2.806 ± 0.06
293.15 K	2.397 ± 0.051
298.15 K	2.059 ± 0.044
303.15 K	1.777 ± 0.038
308.15 K	1.542 ± 0.033
313.15 K	1.344 ± 0.029
318.15 K	1.176 ± 0.025

CCCCCCCC[n+]1ccn(C)c1.F[P-](F)(F)(F)(F)F + CN(C)C=O
viscosity [mPa·s], 101 kPa
Details	293.15 K	303.15 K	313.15 K	323.15 K	333.15 K	343.15 K	353.15 K	363.15 K
x1 = 0.002835	0.969 ± 0.025	0.865 ± 0.024	0.776 ± 0.024	0.705 ± 0.022	0.644 ± 0.02	0.591 ± 0.014	0.546 ± 0.016	0.505 ± 0.014
x1 = 0.00569	0.994 ± 0.023	0.887 ± 0.02	0.798 ± 0.018	0.723 ± 0.017	0.659 ± 0.015	0.604 ± 0.014	0.556 ± 0.013	0.514 ± 0.012
x1 = 0.01089	1.044 ± 0.024	0.929 ± 0.021	0.838 ± 0.019	0.754 ± 0.017	0.686 ± 0.016	0.628 ± 0.014	0.578 ± 0.013	0.533 ± 0.012
x1 = 0.01648	1.097 ± 0.025	0.973 ± 0.022	0.879 ± 0.02	0.786 ± 0.018	0.714 ± 0.016	0.652 ± 0.015	0.599 ± 0.014	0.552 ± 0.013
x1 = 0.02114	1.144 ± 0.026	1.013 ± 0.023	0.916 ± 0.021	0.815 ± 0.018	0.739 ± 0.017	0.674 ± 0.015	0.617 ± 0.014	0.569 ± 0.013
x1 = 0.02677	1.201 ± 0.027	1.059 ± 0.024	0.961 ± 0.022	0.848 ± 0.019	0.768 ± 0.018	0.699 ± 0.016	0.639 ± 0.015	0.588 ± 0.014

CCCC[n+]1ccn(C)c1.[Cl-] + CN(C)C=O
101 kPa
Details	electrical conductivity [S/m]	viscosity [mPa·s]
293.15 K, x2 = 0.9	–	3.4 ± 1.5
298.15 K, x1 = 0.0172	–	0.98 ± 0.11
298.15 K, x2 = 0.5541	0.322 ± 0.006	41.1 ± 6.3
298.15 K, x2 = 0.975	0.574 ± 0.011	0.96 ± 0.27
303.15 K, x2 = 0.5056	–	52.3 ± 2.6
303.15 K, x2 = 0.6034	–	21.3 ± 3.3
303.15 K, x2 = 0.7982	–	4.15 ± 0.74
303.15 K, x2 = 0.9503	–	1.14 ± 0.29
308.15 K, x1 = 0.0086	–	0.82 ± 0.1
308.15 K, x2 = 0.8014	–	3.51 ± 0.65
308.15 K, x2 = 0.8999	–	1.53 ± 0.35
308.15 K, x2 = 0.974	–	0.94 ± 0.11

CCCC[n+]1ccn(C)c1.O=S(=O)([O-])C(F)(F)F + CN(C)c1ccccc1
Details	viscosity [mPa·s]
308.15 K, 100 kPa, x2 = 0	52.2 ± 2.3

CCCC[N+]1(C)CCCC1.O=S(=O)([N-]S(=O)(=O)C(F)(F)F)C(F)(F)F + CO
101 kPa, frequency 0.001 MHz
Details	electrical conductivity [S/m]
293.15 K, x1 = 0.05	0.368 ± 0.057
293.15 K, x1 = 0.26	1.77 ± 0.039
293.15 K, x1 = 0.37	2.11 ± 0.03
298.15 K, x1 = 0.26	1.93 ± 0.04
303.15 K, x1 = 0.26	2.17 ± 0.05
303.15 K, x1 = 0.42	2.61 ± 0.03
308.15 K, x1 = 0.26	2.38 ± 0.049
308.15 K, x1 = 0.47	2.85 ± 0.035
308.15 K, x1 = 0.68	1.84 ± 0.051
313.15 K, x1 = 0.32	2.79 ± 0.048
313.15 K, x1 = 0.53	2.91 ± 0.05
313.15 K, x1 = 0.68	2.08 ± 0.057
313.15 K, x1 = 0.74	1.8 ± 0.052
313.15 K, x1 = 0.84	1.29 ± 0.068
313.15 K, x1 = 1	0.488 ± 0.005
318.15 K, x1 = 0.21	2.4 ± 0.1
318.15 K, x1 = 0.63	2.55 ± 0.064
318.15 K, x1 = 0.68	2.27 ± 0.056
318.15 K, x1 = 0.79	1.7 ± 0.058
318.15 K, x1 = 0.84	1.43 ± 0.07

101 kPa
Details	viscosity [mPa·s]
293.15 K, x1 = 0.05	1.02 ± 0.14
293.15 K, x1 = 0.26	8.31 ± 0.54
293.15 K, x1 = 0.37	12.95 ± 0.69
298.15 K, x1 = 0.26	7.2 ± 0.46
303.15 K, x1 = 0.26	6.29 ± 0.4
303.15 K, x1 = 0.42	11.11 ± 0.54
308.15 K, x1 = 0.26	5.53 ± 0.34
308.15 K, x1 = 0.47	10.87 ± 0.49
308.15 K, x1 = 0.68	16.54 ± 0.76
313.15 K, x1 = 0.32	6.15 ± 0.33
313.15 K, x1 = 0.53	10.55 ± 0.47
313.15 K, x1 = 0.68	14.3 ± 0.65
313.15 K, x1 = 0.74	16.1 ± 0.75
313.15 K, x1 = 0.84	21.3 ± 1.1
313.15 K, x1 = 1	35.7 ± 1.5
318.15 K, x1 = 0.21	3.3 ± 0.25
318.15 K, x1 = 0.63	11.22 ± 0.51
318.15 K, x1 = 0.68	12.47 ± 0.57
318.15 K, x1 = 0.79	15.95 ± 0.78
318.15 K, x1 = 0.84	18.39 ± 0.93
318.15 K, x1 = 0.95	25.2 ± 1.3

CCCC[n+]1ccn(C)c1.COP(=O)([O-])OC + CO
viscosity [mPa·s], 101 kPa
Details	293.15 K	308.15 K	313.15 K	318.15 K
x2 = 0.404	–	68.7 ± 1	–	44.37 ± 0.55
x2 = 0.8	7.184 ± 0.084	–	4.401 ± 0.052	–

CCCC[n+]1ccn(C)c1.N[C@@H](CCC(=O)O)C(=O)[O-] + CO
101 kPa
Details	viscosity [mPa·s]
298.15 K, x2 = 0.2002	46.1 ± 4.3
298.15 K, x2 = 0.2995	34.4 ± 3.2
298.15 K, x2 = 0.7	4.97 ± 0.46
298.15 K, x2 = 0.9	1.24 ± 0.12
303.15 K, x2 = 0.6002	9.62 ± 0.9
308.15 K, x2 = 0.6002	8.63 ± 0.8
308.15 K, x2 = 0.8001	2.83 ± 0.26
313.15 K, x2 = 0.2002	25.6 ± 2.4
313.15 K, x2 = 0.7	4.55 ± 0.42

CCCC[n+]1ccn(C)c1.[Cl-] + CO
101 kPa, frequency 0 MHz
Details	electrical conductivity [S/m]
293.15 K, x1 = 0.007978	0.93 ± 0.24
303.15 K, x1 = 0.00449	0.66 ± 0.25
313.15 K, x1 = 0.002223	0.42 ± 0.32
313.15 K, x1 = 0.00354	0.6 ± 0.29
323.15 K, x1 = 0.00449	0.83 ± 0.31

101 kPa
Details	electrical conductivity [S/m]	viscosity [mPa·s]
293.15 K, x2 = 0.5001	–	65 ± 11
293.15 K, x2 = 0.5458	–	40.4 ± 6.2
298.15 K, x2 = 0.7015	2.19 ± 0.04	7.5 ± 1.2
303.15 K, x2 = 0.5594	–	27.1 ± 4.2
303.15 K, x2 = 0.7001	–	6.8 ± 1.1
308.15 K, x2 = 0.8999	–	1.19 ± 0.3
308.15 K, x2 = 0.95	–	0.79 ± 0.24
